Read-outs that look alike come from different tables or passages of the source. One block for each compound: values may come before it.
Legend:
Type in all cases: cell-based, human
[1] = system: p-ERK in AGS cells (KRAS G12D mutation); test: Cell p-ERK assay (HTRF, Advance ERK phospho-T202/Y204 kit); settings: read-out: AGS p-ERK IC50
Outline: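 AGS cells (endogenous KRAS G12D) seeded at ~20000 cells/well overnight, then treated 3 h with 3.16-fold compound dilutions, 0.1% DMSO final. Lysates assayed for phospho-T202/Y204 ERK by HTRF after 4 h antibody incubation; inhibition vs DMSO and blank, IC50 by four-parameter fit.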

[2] = system: AGS cells (KRAS G12D); test: Cell proliferation inhibition assay, 3D, CellTiter-Glo 3D, AGS; settings: AGS 3D sphere model, 5 days incubation
Outline: (§1)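 Spheroids (800 AsPC-1 or 400 AGS cells/well; RPMI-1640 or F-12K with 10% FBS) formed overnight, then were dosed on day 2 with a 3.16-fold series at 0.1% DMSO. After 5 days, viability was read by CellTiter-Glo 3D luminescence, and IC50 came from four-parameter fits of inhibition versus DMSO control and medium blank.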

[3] = system: AsPC-1 cells (KRAS G12D mutation); test: Cell proliferation inhibition assay, 3D, CellTiter-Glo 3D, AsPC-1; settings: AsPC-1 3D sphere model, 5 days incubation
Outline: as §1

[4] = Homo sapiens, AGS cells, 3 hours incubation with compound, HTRF
[5] = AGS cells, 3 hours incubation with compound, HTRF

SMILES: C#Cc1cccc2cc(N)cc(-c3nc4c5c(nc(OCC6(CO)CC6)nc5c3F)N3C[C@H]5CC[C@H](N5)[C@H]3[C@H](C)O4)c12 [Example Z701, (1-((((5S,5aS,6S,9R)-2-(3-amino-8-ethynylnaphthalen-1-yl)-1-fluoro-5-methyl-5a,6,7,8,9,10-hexahydro-5H-4-oxa-3,10a, 11,13,14-pentaaza-6,9-methanonaphtho[1,8-ab]heptalen-12-yl)oxy)methyl)cyclopropyl)methanol]
IC50 [1, 4]: 39.5 nM
IC50 ([2]; Homo sapiens, 120 h): 230 nM
IC50 ([3]; Homo sapiens, ASPC1, 120 h): 245 nM

SMILES: C#Cc1cccc2cccc(-c3nc4c5c(nc(OC[C@@]67CCCN6CCC7=C)nc5c3F)N3C[C@H]5CC[C@H](N5)[C@H]3[C@H](C)O4)c12 [Example Z702, (5S,5aS,6S,9R)-2-(8-ethynylnaphthalen-1-yl)-1-fluoro-5-methyl-12-(((S)-1-methylenetetrahydro-1H-pyrrolizin-7a (5H)-yl)methoxy)-5a,6,7,8,9,10-hexahydro-5H-4-oxa-3,10a, 11,13,14-pentaaza-6,9-methanonaphtho[1,8-ab]heptalene]
IC50 [1, 4]: 11.1 nM
IC50 ([2]; Homo sapiens, 120 h): 26.8 nM
IC50 ([3]; Homo sapiens, ASPC1, 120 h): 51.9 nM

IC50 [1, 5]: 1.05 nM
IC50 [2]: 2.64 nM
IC50 [3]: 1.78 nM
SMILES: C#Cc1cccc2cc(N)cc(-c3nc4c5c(nc(OCC67CC(=C)CN6CC(=C)C7)nc5c3F)N3C[C@H]5CC[C@H](N5)[C@H]3[C@H](C)O4)c12 [Example Z703, 4-((5S,5aS,6S,9R)-12-((2,6-dimethylenetetrahydro-1H-pyrrolizin-7a (5H)-yl)methoxy)-1-fluoro-5-methyl-5a,6,7,8,9,10-gexahydro-5H-4-oxa-3,10a,11,13,14-pentaaza-6,9-methanonaphtho[1,8-ab]heptalene-2-yl)-5-ethynylnaphthalen-2-amine]

SMILES: C#Cc1cccc2cc(N)cc(-c3nc4c5c(nc(OCC67CCCN6CC(F)(F)C7)nc5c3F)N3C[C@H]5CC[C@H](N5)[C@H]3[C@H](C)O4)c12 (stereo partly drawn) [Example Z706, 4-((5S,5aS,6S,9R)-12-((2,2-difluorotetrahydro-1H-pyrrolizin-7a (5H)-yl)methoxy)-1-fluoro-5-methyl-5a,6,7,8,9,10-hexahydro-5H-4-oxa-3,10a,11,13,14-pentaaza-6,9-methanonaphtho[1,8-ab]heptalen-2-yl)-5-ethynylnaphthalen-2-amine]
IC50 [1, 4]: 6.64 nM
IC50 ([2]; Homo sapiens, 120 h): 26 nM
IC50 ([3]; Homo sapiens, ASPC1, 120 h): 37.9 nM

SMILES: C#Cc1c(F)ccc2cc(O)cc(-c3nc4c5c(nc(OCC6(CO)CC6)nc5c3F)N3C[C@H]5CC[C@H](N5)[C@H]3[C@H](C)O4)c12 [Example Z708, 5-ethynyl-6-fluoro-4-((5S,5aS,6S,9R)-1-fluoro-12-((1-(hydroxymethyl)cyclopropyl)methoxy)-5-methyl-5a,6,7,8,9,10-hexahydro-5H-4-oxa-3,10a, 11,13,14-pentaaza-6,9-methanonaphtho[1,8-ab]heptalene-2-yl) naphthalen-2-ol]
IC50 ([1]; Homo sapiens, AGS, 3 h): 38.5 nM
IC50 ([2]; Homo sapiens, 120 h): 176 nM
IC50 ([3]; Homo sapiens, ASPC1, 120 h): 941 nM

IC50 [1, 4]: 12.2 nM
IC50 ([2]; Homo sapiens, 120 h): 86.8 nM
IC50 ([3]; Homo sapiens, ASPC1, 120 h): 117 nM
SMILES: C#Cc1cccc2cc(N)cc(-c3nc4c5c(nc(OCC6(CN7CCOCC7)CC6)nc5c3F)N3C[C@@H](C)NC[C@H]3[C@H](C)O4)c12 [Example Z709, 5-ethynyl-4-((5S,5aS,8R)-1-fluoro-5,8-dimethyl-11-((1-(morpholinomethyl)cyclopropyl)methoxy)-5,5a,6,7,8,9-hexahydro-4-oxa-3,7,9a,10,12-pentaazabenzo[4,5]cyclohepta[1,2,3-de]naphthalen-2-yl) naphthalen-2-amine]

SMILES: C#Cc1cccc2cc(N)cc(-c3nc4c5c(nc(OCC6(CN7CC[C@@H](F)C7)CC6)nc5c3F)N3C[C@H]5CC[C@H](N5)[C@H]3[C@H](C)O4)c12 [Example Z710, 5-Ethynyl-4-((5S,5aS,6S,9R)-1-Fluoro-12-((1-(((R)-3-Fluoropyrrolidin-1-Yl)Methyl)Cyclopropyl)Methoxy)-5-Methyl-5a,6,7,8,9,10-Hexahydro-5H-4-Oxa-3,10a,11,13,14-Pentaaza-6,9-Methanonaphtho[1,8-Ab]Heptalen-2-Yl) Naphthalen-2-Amine]
IC50 [1, 4]: 0.34 nM
IC50 ([2]; Homo sapiens, 120 h): 4.26 nM
IC50 ([3]; Homo sapiens, ASPC1, 120 h): 3.72 nM

SMILES: C#Cc1cccc2cc(N)cc(-c3nc4c5c(nc(OCC67CC(=C)CN6CC(F)(F)C7)nc5c3F)N3C[C@H]5CC[C@H](N5)[C@H]3[C@H](C)O4)c12 (stereo partly drawn) [Example Z711, 4-((5S,5aS,6S,9R)-12-((2,2-difluoro-6-methylenetetrahydro-1H-pyrrolizin-7a (5H)-yl)methoxy)-1-fluoro-5-methyl-5a,6,7,8,9,10-hexahydro-5H-4-oxa-3,10a,11,13,14-pentaaza-6,9-methanonaphtho[1,8-ab]heptalen-2-yl)-5-ethynylnaphthalen-2-amine]
IC50 [1, 4]: 13.3 nM
IC50 ([2]; Homo sapiens, 120 h): 54.2 nM
IC50 ([3]; Homo sapiens, ASPC1, 120 h): 85.6 nM

SMILES: C#Cc1cccc2cc(N)cc(-c3nc4c5c(nc(OCC6(CN7CCC(F)(F)C7)CC6)nc5c3F)N3C[C@H]5CC[C@H](N5)[C@H]3[C@H](C)O4)c12 [Example Z712, 4-((5S,5aS,6S,9R)-12-((1-((3,3-difluoropyrrolidin-1-yl)methyl)cyclopropyl)methoxy)-1-fluoro-5-methyl-5a,6,7,8,9,10-hexahydro-5H-4-oxa-3,10a, 11, 13, 14-pentaaza-6,9-methanonaphtho[1,8-ab]heptalen-2-yl)-5-ethynylnaphthalen-2-amine]
IC50 [1, 4]: 28.2 nM
IC50 ([2]; Homo sapiens, 120 h): 60.7 nM
IC50 ([3]; Homo sapiens, ASPC1, 120 h): 30.4 nM

SMILES: C#Cc1cccc2cc(N)cc(-c3nc4c5c(nc(OCC6(CN7CC(F)(F)C7)CC6)nc5c3F)N3C[C@H]5CC[C@H](N5)[C@H]3[C@H](C)O4)c12 [Example Z713, 4-((5S,5aS,6S,9R)-12-((1-((3,3-difluoroazetidin-1-yl)methyl)cyclopropyl)methoxy)-1-fluoro-5-methyl-5a,6,7,8,9,10-hexahydro-5H-4-oxa-3,10a, 11, 13,14-pentaaza-6,9-methanonaphtho[1,8-ab]heptalen-2-yl)-5-ethynylnaphthalen-2-amine]
IC50 [1, 4]: 22 nM
IC50 ([2]; Homo sapiens, 120 h): 73.5 nM
IC50 ([3]; Homo sapiens, ASPC1, 120 h): 55.6 nM

SMILES: C#Cc1cccc2cc(N)cc(-c3nc4c5c(nc(OCC6(CN(C)CC(F)(F)F)CC6)nc5c3F)N3C[C@H]5CC[C@H](N5)[C@H]3[C@H](C)O4)c12 [Example Z714, 5-Ethynyl-4-((5S,5aS,6S,9R)-1-Fluoro-5-Methyl-12-((1-((Methyl(2,2,2-Trifluoroethyl)Amino)Methyl)Cyclopropyl)Methoxy)-5a,6,7,8,9,10-Hexahydro-5H-4-Oxa-3,10a,11,13,14-Pentaaza-6,9-Methanonaphtho[1,8-Ab]Heptalen-2-Yl) Naphthalen-2-Amine]
IC50 [1, 4]: 622 nM
IC50 ([2]; Homo sapiens, 120 h): 673 nM
IC50 ([3]; Homo sapiens, ASPC1, 120 h): 815 nM

SMILES: C#Cc1cccc2c(F)c(N)cc(-c3nc4c5c(nc(OCC6(CN7CCOCC7)CC6)nc5c3F)N3C[C@H]5CC[C@H](N5)[C@H]3[C@H](C)O4)c12 [Example Z715, 5-ethynyl-1-fluoro-4-((5S,5aS,6S,9R)-1-fluoro-5-methyl-12-((1-(morpholinomethyl)cyclopropyl)methoxy)-5a,6,7,8,9,10-hexahydro-5H-4-oxa-3,10a, 11,13, 14-pentaaza-6,9-methanonaphtho[1,8-ab]heptalen-2-yl) naphthalen-2-amine]
IC50 [1, 4]: 1.94 nM
IC50 ([2]; Homo sapiens, 120 h): 3.44 nM
IC50 ([3]; Homo sapiens, ASPC1, 120 h): 3.83 nM

SMILES: Cc1cc(-c2nc3c4c(nc(OCC5(CN6CCOCC6)CC5)nc4c2F)N2C[C@H]4CC[C@H](N4)[C@H]2[C@H](C)O3)c(C)c(N)c1C1CC1 [Example Z716, 2-cyclopropyl-5-((5S,5aS,6S,9R)-1-fluoro-5-methyl-12-((1-(morpholinomethyl)cyclopropyl)methoxy)-5a,6,7,8,9,10-hexahydro-5H-4-oxa-3,10a, 11,13,14-pentaaza-6,9-methanonaphtho[1,8-ab]heptalen-2-yl)-3,6-dimethylaniline]
IC50 [1, 4]: 81.8 nM
IC50 ([2]; Homo sapiens, 120 h): 48.6 nM
IC50 ([3]; Homo sapiens, ASPC1, 120 h): 89.2 nM

SMILES: Cc1cc(N)c(C)c(-c2nc3c4c(nc(OCC5(CN6CCOCC6)CC5)nc4c2F)N2C[C@H]4CC[C@H](N4)[C@H]2[C@H](C)O3)c1C1CC1 [Example Z717, 4-cyclopropyl-3-((5S,5aS,6S,9R)-1-fluoro-5-methyl-12-((1-(morpholinomethyl)cyclopropyl)methoxy)-5a,6,7,8,9,10-hexahydro-5H-4-oxa-3,10a, 11,13,14-pentaaza-6,9-methanonaphtho[1,8-ab]heptalen-2-yl)-2,5-dimethylaniline]
IC50 [1, 4]: 14.8 nM
IC50 ([2]; Homo sapiens, 120 h): 29.1 nM
IC50 ([3]; Homo sapiens, ASPC1, 120 h): 50.2 nM

SMILES: C#Cc1cccc2cc(N)cc(-c3nc4c5c(nc(O[C@@H]6CCC[C@H]6O)nc5c3F)N3C[C@H]5CC[C@H](N5)[C@H]3[C@H](C)O4)c12 [Example Z718, (1R,2R)-2-(((5S,5aS,6S,9R)-2-(3-amino-8-ethynylnaphthalen-1-yl)-1-fluoro-5-methyl-5a,6,7,8,9,10-hexahydro-5H-4-oxa-3,10a,11,13,14-pentaaza-6,9-methanonaphtho[1,8-ab]heptalen-12-yl)oxy)cyclopentan-1-ol]
IC50 [1, 4]: 157 nM
IC50 ([2]; Homo sapiens, 120 h): 455 nM
IC50 ([3]; Homo sapiens, ASPC1, 120 h): 429 nM

IC50 [1, 5]: 1.16 nM
IC50 [2]: 1.03 nM
IC50 [3]: 3 nM
SMILES: C[C@@H]1Oc2nc(-c3cc(N)cc4ccc(F)c(F)c34)c(F)c3nc(OCC4(CN5CCOCC5)CC4)nc(c23)N2C[C@H]3CC[C@H](N3)[C@@H]12 [Example Z719, 5,6-difluoro-4-((5S,5aS,6S,9R)-1-fluoro-S-methyl-12-((1-(morpholinomethyl)cyclopropyl)methoxy)-5a,6,7,8,9,10-hexahydro-5H-4-oxa-3,10a, 11,13,14-pentaaza-6,9-methanonaphtho[1,8-ab]heptalene-2-yl) naphthalen-2-amine]

Source: patent US20250186456A1, “PYRIMIDINE-FUSED CYCLIC COMPOUND AND PREPARATION METHOD AND USE THEREOF” (Genfleet Therapeutics (Shanghai) Inc., priority 2021, published 2025)
